Source: ChEMBL document CHEMBL1144073, “A cytotoxic triterpene saponin from the root bark of Aralia dasyphylla” (J Nat Prod, 1999)
In brackets after ≈: the same amount, converted by molar mass.

Key:
KB = assay: Cytotoxicity against human KB cells; assay type: functional, cell-based
HeLa = assay: Cytotoxicity against human HeLa S3 cells; assay type: functional, cell-based

Nc1ccn([C@@H]2O[C@H](CO)[C@@H](O)[C@@H]2O)c(=O)n1 [CYTARABINE]
IC50 (KB): 0.81 µg/mL (≈ 3.33 µM)
IC50 (HeLa): 0.23 µg/mL (≈ 0.946 µM)

CC1(C)CC[C@]2(C(=O)O[C@@H]3O[C@H](CO)[C@@H](O)[C@H](O)[C@H]3O)CC[C@]3(C)C(=CC[C@@H]4[C@@]5(C)CC[C@H](O[C@@H]6O[C@H](C(=O)O)[C@@H](O)[C@H](O[C@@H]7O[C@H](CO)[C@@H](O)[C@H](O)[C@H]7O)[C@H]6O[C@@H]6O[C@H](CO)[C@H](O)[C@H](O)[C@H]6O)C(C)(C)C5CC[C@]43C)[C@H]2C1 (stereo partly specified)
IC50 (KB): 1.2 µg/mL (≈ 1.07 µM)
IC50 (HeLa): 0.02 µg/mL (≈ 0.0179 µM)

O=c1[nH]cc(F)c(=O)[nH]1 [FLUOROURACIL]
IC50 (KB): 0.93 µg/mL (≈ 7.15 µM)
IC50 (HeLa): 0.44 µg/mL (≈ 3.38 µM)
